Source: PubChem BioAssay (NCI)
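Grown in 96-well plates, cells were treated for 48 hours with each compound at five concentrations. Insufficient inhibition: endpoint recorded as highest concentration tested. GI50 is the concentration that inhibits growth by half. Definition used: TGI = concentration required for complete inhibition of growth.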

Key:
Assay in all cases: NCI anticancer screen, dose series, 48 h
EKVX NSCLC = system: EKVX NSCLC
SK-MEL-2 melanoma = system: SK-MEL-2 melanoma
HS 578T breast = system: HS 578T breast
CCRF-CEM leukemia = system: CCRF-CEM leukemia
A498 renal = system: A498 renal
NCI-H522 lung = system: NCI-H522 lung
RPMI-8226 leukemia = system: RPMI-8226 leukemia
ACHN renal = system: ACHN renal
A549 NSCLC = system: A549 NSCLC
OVCAR-3 ovarian = system: OVCAR-3 ovarian

| Compound | TGI (EKVX NSCLC) | TGI (SK-MEL-2 melanoma) | TGI (HS 578T breast) | TGI (CCRF-CEM leukemia) | TGI (A498 renal) | TGI (NCI-H522 lung) | TGI (RPMI-8226 leukemia) | TGI (ACHN renal) | TGI (A549 NSCLC) | TGI (OVCAR-3 ovarian) | GI50 (EKVX NSCLC) | GI50 (SK-MEL-2 melanoma) | GI50 (HS 578T breast) | GI50 (CCRF-CEM leukemia) | GI50 (A498 renal) | GI50 (NCI-H522 lung) | GI50 (RPMI-8226 leukemia) | GI50 (ACHN renal) | GI50 (A549 NSCLC) | GI50 (OVCAR-3 ovarian) |
| --- | --- | --- | --- | --- | --- | --- | --- | --- | --- | --- | --- | --- | --- | --- | --- | --- | --- | --- | --- | --- |
| NCCNc1nc(N2CCCC2)c2nc(Cl)c(NCc3ccccc3)nc2n1 | 4.36 µM | 3.37 µM | 12.8 µM | 6.87 µM | 4.4 µM | 3.31 µM | 3.84 µM | 3.99 µM | 3.36 µM | 4.16 µM |  |  |  |  |  |  |  |  |  |  |
| OCCOCn1cc(Cn2ncc3c(SCc4ccccc4)ncnc32)nn1 | > 100 µM | > 100 µM | > 100 µM |  | > 100 µM | 99.2 µM |  | > 100 µM | > 100 µM | > 100 µM |  |  |  |  |  |  |  |  |  |  |
| COC(=O)C1C(C)N1C (centres undefined) | > 100 µM |  |  | > 100 µM |  | > 100 µM | > 100 µM |  | > 100 µM | > 100 µM |  |  |  |  |  |  |  |  |  |  |
| Clc1ccc(Nc2nc(Cl)c3[nH]cnc3n2)cc1Cl | 49.1 µM | 59.5 µM | 56.3 µM | 48.2 µM | 34.9 µM | 56.7 µM | 83 µM | > 100 µM | > 100 µM | 61 µM |  |  |  |  |  |  |  |  |  |  |
| COc1ccc(/C=C(\C#N)c2nc(N)nc(N3N=C(C)CC3(C)C)n2)c(O)c1 | 47.9 µM | 38.9 µM | 40 µM | 76.9 µM | 69.7 µM | 38.9 µM | 98.7 µM | 31 µM | 44.5 µM | 28.3 µM |  |  |  |  |  |  |  |  |  |  |
| COc1c2c(cc3c1C(O)N1CC[C@]34[C@H]3O[C@H]3[C@H](OC)C[C@@H]14)OCO2 (some centres undefined) | > 100 µM | 83.8 µM | > 100 µM | 14.2 µM | > 100 µM | 96.7 µM | > 100 µM | > 100 µM | > 100 µM | 38.4 µM |  |  |  |  |  |  |  |  |  |  |
| C[C@]12CCC(=O)C=C1CC[C@@H]1[C@@H]2[C@@H](O)C[C@@]2(C)[C@H]1CC[C@]2(O)C(=O)CO | > 100 µM | > 100 µM | > 100 µM | > 100 µM | > 100 µM | > 100 µM | > 100 µM | > 100 µM | > 100 µM | > 100 µM |  |  |  |  |  |  |  |  |  |  |
| O=S(=O)(O)c1cccc2c(N=Nc3c(O)ccc4ccccc34)cccc12 | > 100 µM | > 100 µM | > 100 µM | > 100 µM | > 100 µM | > 100 µM | > 100 µM | > 100 µM | > 100 µM | > 100 µM |  |  |  |  |  |  |  |  |  |  |
| [O-][N+](CCO)(CCO)c1ncnc2nc[nH]c12 | > 100 µM | > 100 µM | > 100 µM | > 100 µM | > 100 µM | > 100 µM | > 100 µM | > 100 µM | > 100 µM | > 100 µM |  |  |  |  |  |  |  |  |  |  |
| Nc1ccccc1N/C(=C\C(=O)C(Cl)(Cl)Cl)c1ccccc1 | 63.1 µM | 28.6 µM | > 100 µM | > 100 µM |  | 35 µM | 86 µM | 75.4 µM | > 100 µM | 65.2 µM |  |  |  |  |  |  |  |  |  |  |
| O=C(CCN1CC2CCC(CC2)C1)c1cccs1 | 42.6 µM | 33.6 µM | 71.9 µM | 4.81 µM | > 100 µM | 36.3 µM | 12.4 µM | 33.6 µM | > 57.6 µM | 58 µM |  |  |  |  |  |  |  |  |  |  |
| O=[n+]1c2c(n([O-])c3ccccc31)-c1cccc3cccc-2c13 |  |  | > 100 µM | > 100 µM | > 100 µM | > 100 µM |  | > 100 µM | > 100 µM | > 100 µM |  |  |  |  |  |  |  |  |  |  |
| O=C1c2cc3c(cc2-c2c1c1ccc(Cl)cc1c(=O)n2C[C@H](O)[C@@H](O)[C@H](O)CO)OCO3 | 11.2 µM | 0.432 µM | > 100 µM | 17 µM | 0.207 µM | 0.172 µM | 0.989 µM | 0.118 µM | 0.476 µM | 0.452 µM | 0.202 µM | 0.194 µM | 0.328 µM | < 0.01 µM | 0.0673 µM | 0.0117 µM | 0.24 µM | 0.0254 µM | 0.112 µM | 0.0758 µM |
| CC1(C)CC(=O)C2=C(C1)NC(SSC1=C(C#N)C(c3ccc(F)cc3)C3=C(CC(C)(C)CC3=O)N1)=C(C#N)C2c1ccc(F)cc1 (centres undefined) | 78.5 µg/mL |  | > 150 µg/mL | 136 µg/mL |  |  | 118 µg/mL | 53.7 µg/mL | 15 µg/mL | 46.1 µg/mL | 35.5 µg/mL |  | 76.9 µg/mL | 34.1 µg/mL |  |  | 50.5 µg/mL | 28.7 µg/mL | 15 µg/mL | 25.6 µg/mL |
